Where two headings read alike, the source gives them in different places.
Test system: 280 human cancer cell lines
Assay: OncoPanel cell proliferation assay (10-day)
Format: cell-based
Conditions: Homo sapiens; for EC50: read-out: Cell Count EC50; for GI50: read-out: Cell Count GI50; for IC50: read-out: Cell Count IC50
[1] = Caov-3, CaOV3, Female GU - Ovary
[2] = ChaGo-K-1, ChaGoK1, Lung - NSCLC
[3] = D341 Med, CNS - Medulloblastoma
[4] = Detroit 562, Detroit 562, Head and Neck
[5] = DoTc2-4510, DoTc2 4510, Lymphoma
[6] = G292, G-292, clone A141B1, Soft Tissue - Osteosarcoma
[7] = HEL 92.1.7, HEL-92-1-7, Leukemia
[8] = HOS, Soft Tissue - Osteosarcoma
[9] = HT-1080, HT-1080, Soft Tissue - Sarcoma
[10] = HUH-6-clone5, HUH-6 Clone 5, Liver
[11] = Hs 821.T, Soft Tissue - Sarcoma
[12] = Hs 888.Sk, Soft Tissue - Osteosarcoma

CC(C)=CCC[C@H](C)[C@@H]1CC[C@@H](C)c2c1cc(C)c(O)c2O [Compound 4, 7,8-dihydroxyserrulat-14-ene]
EC50 [1]: 10.2 µM | GI50 [1]: 10.2 µM | IC50 [1]: 10.3 µM | EC50 (Capan-2, Capan-2, Pancreas): 24.8 µM | GI50 (Capan-2, Capan-2, Pancreas): 24.7 µM | IC50 (Capan-2, Capan-2, Pancreas): 24.8 µM | EC50 [2]: 8.92 µM | GI50 [2]: 8.82 µM | IC50 [2]: 8.92 µM | EC50 [3]: 8.57 µM | GI50 [3]: 8.4 µM | IC50 [3]: 8.57 µM | EC50 (DB, Lymphoma): 3.85 µM | GI50 (DB, Lymphoma): 3.84 µM | IC50 (DB, Lymphoma): 3.85 µM | EC50 (DBTRG-05MG, CNS - Glioma): 17.6 µM | GI50 (DBTRG-05MG, CNS - Glioma): 17.4 µM | IC50 (DBTRG-05MG, CNS - Glioma): 17.6 µM | EC50 (DK-MG, CNS - Glioma): 17.2 µM | GI50 (DK-MG, CNS - Glioma): 16.4 µM | IC50 (DK-MG, CNS - Glioma): 17.2 µM | EC50 (DLD-1, DLD-1, Colon): 15.7 µM | GI50 (DLD-1, DLD-1, Colon): 15.7 µM | IC50 (DLD-1, DLD-1, Colon): 15.7 µM | EC50 (DMS-53, DMS53, Lung - SCLC): 8.95 µM | GI50 (DMS-53, DMS53, Lung - SCLC): 8.6 µM | IC50 (DMS-53, DMS53, Lung - SCLC): 8.95 µM | EC50 (DMS-114, DMS114, Lung - SCLC): 11.5 µM | GI50 (DMS-114, DMS114, Lung - SCLC): 11.4 µM | IC50 (DMS-114, DMS114, Lung - SCLC): 11.6 µM | EC50 (DOHH-2, DOHH-2, Lymphoma): 2.24 µM | GI50 (DOHH-2, DOHH-2, Lymphoma): 2.24 µM | IC50 (DOHH-2, DOHH-2, Lymphoma): 2.24 µM | EC50 (DU-145, DU145, Prostate): 18.1 µM | GI50 (DU-145, DU145, Prostate): 18.1 µM | IC50 (DU-145, DU145, Prostate): 18.1 µM | EC50 (Daoy, CNS - Medulloblastoma): 3.19 µM | GI50 (Daoy, CNS - Medulloblastoma): 3.19 µM | IC50 (Daoy, CNS - Medulloblastoma): 3.19 µM | EC50 (Daudi, Lymphoma): 2.28 µM | GI50 (Daudi, Lymphoma): 2.28 µM | IC50 (Daudi, Lymphoma): 2.28 µM | EC50 [4]: 25 µM | GI50 [4]: 25 µM | IC50 [4]: 25 µM | EC50 [5]: 9.23 µM | GI50 [5]: 9.09 µM | IC50 [5]: 9.23 µM | EC50 (EB2, Lymphoma): 8.35 µM | GI50 (EB2, Lymphoma): 8.32 µM | IC50 (EB2, Lymphoma): 8.38 µM | EC50 (EB-3, Lymphoma): 3.93 µM | GI50 (EB-3, Lymphoma): 3.93 µM | IC50 (EB-3, Lymphoma): 3.93 µM | EC50 (EFM-19, EFM-19, Breast): 11.9 µM | GI50 (EFM-19, EFM-19, Breast): 11.3 µM | IC50 (EFM-19, EFM-19, Breast): 11.9 µM | EC50 (EM-2, Leukemia): 3.99 µM | GI50 (EM-2, Leukemia): 4 µM | IC50 (EM-2, Leukemia): 4 µM | EC50 (FaDu, Head and Neck): 8.28 µM | GI50 (FaDu, Head and Neck): 8.28 µM | IC50 (FaDu, Head and Neck): 8.28 µM | EC50 [6]: 6.23 µM | GI50 [6]: 6.07 µM | IC50 [6]: 6.25 µM | EC50 (G-361, G-361, Skin (Melanoma)): 13.8 µM | GI50 (G-361, G-361, Skin (Melanoma)): 13.8 µM | IC50 (G-361, G-361, Skin (Melanoma)): 13.9 µM | EC50 (G-401, G-401, Kidney): 8.08 µM | GI50 (G-401, G-401, Kidney): 8.05 µM | IC50 (G-401, G-401, Kidney): 8.08 µM | EC50 (GA-10, GA-10, Lymphoma): 1.23 µM | GI50 (GA-10, GA-10, Lymphoma): 1.23 µM | IC50 (GA-10, GA-10, Lymphoma): 1.23 µM | EC50 (H4, CNS - Glioma): 13 µM | GI50 (H4, CNS - Glioma): 13 µM | IC50 (H4, CNS - Glioma): 13 µM | EC50 (HCT-15, HCT-15, Colon): 13.4 µM | GI50 (HCT-15, HCT-15, Colon): 13.4 µM | IC50 (HCT-15, HCT-15, Colon): 13.4 µM | EC50 (HCT-116, HCT-116, Colon): 10.3 µM | GI50 (HCT-116, HCT-116, Colon): 10.3 µM | IC50 (HCT-116, HCT-116, Colon): 10.3 µM | EC50 (HEC-1-A, Female GU - Uterus): 12.3 µM | GI50 (HEC-1-A, Female GU - Uterus): 12.2 µM | IC50 (HEC-1-A, Female GU - Uterus): 12.3 µM | EC50 [7]: 4.05 µM | GI50 [7]: 4.05 µM | IC50 [7]: 4.05 µM | EC50 (HLE, Liver): 7.24 µM | GI50 (HLE, Liver): 7.15 µM | IC50 (HLE, Liver): 7.24 µM | EC50 (HLF, Liver): 8.72 µM | GI50 (HLF, Liver): 8.7 µM | IC50 (HLF, Liver): 8.74 µM | EC50 (HMCB, Skin (Melanoma)): 9.49 µM | GI50 (HMCB, Skin (Melanoma)): 9.38 µM | IC50 (HMCB, Skin (Melanoma)): 9.49 µM | EC50 [8]: 3.08 µM | GI50 [8]: 3.08 µM | IC50 [8]: 3.08 µM | EC50 (HPAF-II, Pancreas): 12.4 µM | GI50 (HPAF-II, Pancreas): 12.4 µM | IC50 (HPAF-II, Pancreas): 12.5 µM | EC50 (HT1197, HT-1197, Bladder): 15.6 µM | GI50 (HT1197, HT-1197, Bladder): 15.2 µM | IC50 (HT1197, HT-1197, Bladder): 15.6 µM | EC50 (HT, Lymphoma): 4.49 µM | GI50 (HT, Lymphoma): 4.46 µM | IC50 (HT, Lymphoma): 4.49 µM | EC50 (HT-3, Female GU - Cervix): 14.5 µM | GI50 (HT-3, Female GU - Cervix): 14.3 µM | IC50 (HT-3, Female GU - Cervix): 14.5 µM | EC50 (HT-29, HT-29, Colon): 17 µM | GI50 (HT-29, HT-29, Colon): 17 µM | IC50 (HT-29, HT-29, Colon): 17 µM | EC50 [9]: 4.42 µM | GI50 [9]: 4.42 µM | IC50 [9]: 4.42 µM | EC50 (HT-1376, HT1376, Bladder): 14.1 µM | GI50 (HT-1376, HT1376, Bladder): 13.8 µM | IC50 (HT-1376, HT1376, Bladder): 14.1 µM | EC50 [10]: 9.63 µM | GI50 [10]: 9.46 µM | IC50 [10]: 9.63 µM | EC50 (HeLa, Female GU - Cervix): 21.1 µM | GI50 (HeLa, Female GU - Cervix): 21.1 µM | IC50 (HeLa, Female GU - Cervix): 21.1 µM | EC50 (HepG2, HepG2, Liver): 25.6 µM | GI50 (HepG2, HepG2, Liver): 25.6 µM | IC50 (HepG2, HepG2, Liver): 25.7 µM | EC50 (Hs 229.T, Lung - NSCLC): 25.9 µM | GI50 (Hs 229.T, Lung - NSCLC): 25.2 µM | IC50 (Hs 229.T, Lung - NSCLC): 26.3 µM | EC50 (Hs 294T, Skin (Melanoma)): 8.33 µM | GI50 (Hs 294T, Skin (Melanoma)): 8.23 µM | IC50 (Hs 294T, Skin (Melanoma)): 8.33 µM | EC50 (Hs 445, Hs 445, Lymphoma): 5.8 µM | GI50 (Hs 445, Hs 445, Lymphoma): 5.74 µM | IC50 (Hs 445, Hs 445, Lymphoma): 5.8 µM | EC50 (Hs 611.T, Lymphoma): 5.11 µM | GI50 (Hs 611.T, Lymphoma): 5.05 µM | IC50 (Hs 611.T, Lymphoma): 5.11 µM | EC50 (Hs 683, Hs 683, CNS - Glioma): 24.5 µM | GI50 (Hs 683, Hs 683, CNS - Glioma): 24.3 µM | IC50 (Hs 683, Hs 683, CNS - Glioma): 24.6 µM | EC50 (Hs 688(A).T, Skin (Melanoma)): 7.43 µM | GI50 (Hs 688(A).T, Skin (Melanoma)): 6.88 µM | IC50 (Hs 688(A).T, Skin (Melanoma)): 7.68 µM | EC50 (Hs746T, HS 746T, Stomach): 20 µM | GI50 (Hs746T, HS 746T, Stomach): 17.1 µM | IC50 (Hs746T, HS 746T, Stomach): 20 µM | EC50 (Hs766T, Hs 766T, Pancreas): 9.34 µM | GI50 (Hs766T, Hs 766T, Pancreas): 9.08 µM | IC50 (Hs766T, Hs 766T, Pancreas): 9.34 µM | EC50 [11]: 12.6 µM | GI50 [11]: 9.99 µM | IC50 [11]: 12.9 µM | EC50 [12]: 12.3 µM | GI50 [12]: 12.1 µM | IC50 [12]: 12.7 µM | EC50 (Hs 934.T, Skin (Melanoma)): 11.1 µM | GI50 (Hs 934.T, Skin (Melanoma)): 10.2 µM | IC50 (Hs 934.T, Skin (Melanoma)): 11.6 µM | EC50 (Hs 936.T(C1), Skin (Melanoma)): 9.1 µM | GI50 (Hs 936.T(C1), Skin (Melanoma)): 10.2 µM | IC50 (Hs 936.T(C1), Skin (Melanoma)): 10.4 µM | EC50 (Hs-578T, Hs 578T, Breast): 15 µM | GI50 (Hs-578T, Hs 578T, Breast): 14.9 µM | IC50 (Hs-578T, Hs 578T, Breast): 15 µM | EC50 (HuCCT-1, HuCCT1, Liver): 24.8 µM | GI50 (HuCCT-1, HuCCT1, Liver): 24.8 µM | IC50 (HuCCT-1, HuCCT1, Liver): 24.8 µM | EC50 (HuP-T4, HuP-T4, Pancreas): 13.7 µM | GI50 (HuP-T4, HuP-T4, Pancreas): 13.6 µM | IC50 (HuP-T4, HuP-T4, Pancreas): 13.7 µM | EC50 (J82, Bladder): 6.22 µM | GI50 (J82, Bladder): 6.09 µM | IC50 (J82, Bladder): 6.22 µM | EC50 (JAR, Placenta): 6.53 µM | GI50 (JAR, Placenta): 6.49 µM | IC50 (JAR, Placenta): 6.53 µM | EC50 (JEG-3, JEG-3, Placenta): 6.5 µM | GI50 (JEG-3, JEG-3, Placenta): 6.48 µM | IC50 (JEG-3, JEG-3, Placenta): 6.51 µM | EC50 (JIYOYE, Lymphoma): 3.55 µM | GI50 (JIYOYE, Lymphoma): 3.55 µM | IC50 (JIYOYE, Lymphoma): 3.55 µM | EC50 (JeKo-1, JeKo-1, Lymphoma): 3.91 µM | GI50 (JeKo-1, JeKo-1, Lymphoma): 3.91 µM | IC50 (JeKo-1, JeKo-1, Lymphoma): 3.91 µM | EC50 (Jurkat, Leukemia): 3.59 µM | GI50 (Jurkat, Leukemia): 3.58 µM | IC50 (Jurkat, Leukemia): 3.59 µM | EC50 (K562, K562, Leukemia): 12.2 µM | GI50 (K562, K562, Leukemia): 12.2 µM | IC50 (K562, K562, Leukemia): 12.2 µM | EC50 (KATO III, Stomach): 10.9 µM | GI50 (KATO III, Stomach): 11.1 µM | IC50 (KATO III, Stomach): 11.1 µM | EC50 (KHOS-240S, Soft Tissue - Osteosarcoma): 4.96 µM

From patent US11331299B2, “Medicinal use of serrulatane diterpenes” (The University of Sydney, priority 2016, dated 2022)
